Assay results as given in ChEMBL document CHEMBL5247633, “Discovery of novel analogs of KHS101 as transforming acidic coiled coil containing protein 3 (TACC3) inhibitors for the treatment of glioblastoma” (Eur J Med Chem, 2022).
Activity calls are given as the source filed them. The calls are words filed in the database; no cut-off is given here.

Tests used:
[1] = Cytotoxicity against human U251 cells assessed as inhibition of cell growth measured after 72 hrs by MTT assay; format: toxicity, cell-based, U-251
[2] = Antiproliferative activity against human U87 cells assessed as inhibition of cell growth incubated for 72 hrs by MTT assay; format: functional, cell-based, U-87MG ATCC; details: U-87 MG
[3] = Antiproliferative activity against human HLF1 cells assessed as cell growth inhibition measured after 72 hrs by MTT assay; format: functional, cell-based; details: HLF1, 72 h
[4] = system: JIMT-1; experiment: Antiproliferative activity against human JIMT-1 cells assessed as cell growth inhibition measured after 72 hrs by MTT assay; format: functional, cell-based; details: JIMT-1, 72 h
[5] = system: SK-OV-3; experiment: Antiproliferative activity against human SK-OV-3 cells assessed as cell growth inhibition measured after 72 hrs by MTT assay; format: functional, cell-based; details: SK-OV-3, 72 h
[6] = system: MDA-MB-231; experiment: Antiproliferative activity against human MDA-MB-231 cells assessed as cell growth inhibition measured after 72 hrs by MTT assay; format: functional, cell-based; details: MDA-MB-231, 72 h
[7] = Induction of ROS generation in human U87 cells at 4 uM incubated for 36 hrs by DCF-DA based flow cytometry analysis relative to control (Rvb= 4.01 %); format: functional, U-87MG ATCC
[8] = Induction of cell cycle arrest in shRNA induced in human U87 cells assessed as accumulation at G2/M phase at 1 to 4 uM by propidium iodide staining based flow cytometric analysis relative to control (reference value: 14.95 %); format: functional, U-87MG ATCC; details: dose 1-4 µM
[9] = Stability in mouse plasma assessed as half life; format: ADME, cell-free
[10] = system: U-87MG ATCC; experiment: Induction of ROS generation in human U87 cells at incubated for 36 hrs by DCF-DA based flow cytometry analysis; format: functional, cell-based; details: dose 1-4 µM
[11] = Stability in human plasma assessed as half life; format: ADME, cell-free
[12] = Induction of mitochondrial membrane potential loss in human U87 cells assessed as increase in green fluorescence intensity at 0 to 4 uM incubated for 36 hrs by JC-1 staining based flow cytometry relative to control (reference value: 9.34 %); format: functional, U-87MG ATCC; details: dose 0-4 µM
[13] = Induction of apoptosis in human U87 cells assessed as late apoptosis at 4 uM incubated for 36 hrs by AnnexinV/propidium iodide staining based flow cytometry method relative to control (reference value: 0.52 %); format: functional, U-87MG ATCC
[14] = system: U-87MG ATCC; experiment: Induction of apoptosis in human U87 cells assessed as increase in number of apoptotic cells by Hoechst 33258 staining method; format: functional, cell-based
[15] = Inhibition of cell invasion in human U87 cells assessed as reduction in number of cells invaded at 4 uM incubated for 24 hrs by matrigel-coated transwell assay (reference value: 154.3%); format: functional, U-87MG ATCC
[16] = biological target: Transforming acidic coiled-coil-containing protein 3 (Homo sapiens) (UniProt Q9Y6A5); experiment: Inhibition of TACC3 in human U87 cells assessed as stabilization of protein by measuring shift in thermal melting curve at 10 uM incubated for 6 hrs by cellular thermal shift assay; format: cell-based
[17] = Antitumor activity against human U87 cells xenografted in BALB/c mouse model assessed as reduction in tumor weight at 20 mg/kg, iv measured on day 20; format: functional, U-87MG ATCC; set-up: scale not given: the % may be the effect or the level left
[18] = system: U-87MG ATCC; experiment: Antitumor activity against human U87 cells xenografted in BALB/c mouse model assessed as decrease in Ki67 positive cells at 20 mg/kg, iv; format: functional, organism-based
[19] = system: U-87MG ATCC; experiment: Antitumor activity against human U87 cells xenografted in BALB/c mouse model assessed as tumor growth regression at 20 mg/kg, iv measured on day 20; format: functional, organism-based
[20] = Induction of cell cycle arrest in human U87 cells assessed as decrease in accumulation at G1 phase at 4 uM after 36 hrs by propidium iodide staining based flow cytometric analysis relative to control (reference value: 51.7 %); format: functional, U-87MG ATCC; set-up: scale not given: the % may be the effect or the level left
[21] = system: U-87MG ATCC; experiment: Induction of cell cycle arrest in human U87 cells assessed as increase in accumulation at G2/M phase at 2 uM after 24 hrs by propidium iodide staining based flow cytometric analysis; format: functional
[22] = system: U-87MG ATCC; experiment: Induction of apoptosis in human U87 cells by AnnexinV/PI staining assay; format: functional, cell-based; details: dose 1-4 µM
[23] = Toxicity in BALB/c mouse transplanted with human U87 cells assessed as effect in body weight at 20 mg/kg, iv; format: organism-based, U-87MG ATCC; details: in vivo
[24] = system: U-87MG ATCC; experiment: Antitumor activity against human U87 cells xenografted in BALB/c mouse model assessed as increase in apoptotic cells at 20 mg/kg, iv by TUNEL assay; format: functional, organism-based
[25] = Inhibition of cell invasion in human U87 cells assessed as reduction in number of cells invaded at 1 uM incubated for 24 hrs by matrigel-coated transwell assay (reference value: 154.3%); format: functional, U-87MG ATCC
[26] = Cytotoxicity against human U87 cells assessed as reduction in cell viability measured after 24 hrs by MTT assay; format: toxicity, cell-based, U-87MG ATCC
[27] = system: U-87MG ATCC; experiment: Antiproliferative activity against shRNA mediated TACC3 knockdown human U87 cells assessed as reduction in cell viability; format: functional, cell-based
[28] = biological target: Transforming acidic coiled-coil-containing protein 3 (Homo sapiens) (UniProt Q9Y6A5); experiment: Inhibition of TACC3 in human U87 cells assessed as stabilization of protein by measuring shift in thermal melting curve at 10 uM in presence of pronase incubated for 6 hrs by cellular thermal shift assay; format: cell-based
[29] = system: U-87MG ATCC; experiment: Inhibition of cell migration in human U87 cells assessed as reduction in cell migration incubated for 24 hrs by wound healing assay; format: functional, cell-based
[30] = Induction of apoptosis in human U87 cells assessed as early apoptosis at 4 uM incubated for 36 hrs by AnnexinV/propidium iodide staining based flow cytometry method relative to control (reference value: 4.49 %); format: functional, U-87MG ATCC
[31] = Induction of cell cycle arrest in human U87 cells assessed as increase in accumulation at G2/M phase at 4 uM after 36 hrs by propidium iodide staining based flow cytometric analysis relative to control (reference value: 15.3 %); format: functional, U-87MG ATCC
[32] = Inhibition of cell invasion in human U87 cells assessed as reduction in number of cells invaded at 2 uM incubated for 24 hrs by matrigel-coated transwell assay (reference value: 154.3%); format: functional, U-87MG ATCC

CCCN(CCC)c1ccnc(NCc2csc(-c3ccccc3)n2)n1
IC50 at 72 h [1]: 16.2 µM | IC50 [2]: 16.4 µM | IC50 [3]: 46.9 µM | IC50 [4]: 16.9 µM | IC50 [5]: 22.2 µM | IC50 [6]: 23.2 µM

CCCCN(CCCC)c1ccnc(NCc2csc(-c3ccccc3)n2)n1
IC50 at 72 h [1]: 14.2 µM | IC50 [2]: 14.8 µM | IC50 [3]: 35.4 µM | IC50 [4]: 13.2 µM | IC50 [5]: 21.3 µM | IC50 [6]: 21.7 µM

CC(C)CNc1ccnc(NCc2csc(-c3ccc(Cl)cc3)n2)n1
IC50 at 72 h [1]: 18.5 µM | IC50 [2]: 16.6 µM | IC50 [3]: 56.3 µM | IC50 [4]: 26.9 µM | IC50 [5]: 34.1 µM | IC50 [6]: 18.3 µM

CC(C)CNc1ccnc(NC(=O)c2csc(-c3ccccc3)n2)n1
IC50 at 72 h [1]: 92.1 µM | IC50 [2]: 59.1 µM | IC50 [4]: > 100 µM | IC50 [5]: 83.5 µM | IC50 [6]: > 100 µM

c1ccc(-c2nc(CNc3ncccn3)cs2)cc1
IC50 at 72 h [1]: > 100 µM | IC50 [2]: > 100 µM

c1ccc(-c2nc(CNc3nccc(N4CCC4)n3)cs2)cc1
IC50 at 72 h [1]: 29.2 µM | IC50 [2]: 21.5 µM | IC50 [3]: 91.1 µM | IC50 [4]: 25.7 µM | IC50 [5]: 33.3 µM | IC50 [6]: 27.7 µM

CC(C)CNc1ccnc(NCc2csc(-c3ccc(C(F)(F)F)cc3)n2)n1
IC50 at 72 h [1]: 29.8 µM | IC50 [2]: 20.1 µM | IC50 [3]: 65.3 µM | IC50 [4]: 38 µM | IC50 [5]: 39 µM | IC50 [6]: 33 µM

CC(C)CNc1ccnc(NCc2csc(-c3ccccc3)c2)n1
IC50 at 72 h [1]: 25.8 µM | IC50 [2]: 30.7 µM | IC50 [3]: 61.2 µM | IC50 [4]: 42.2 µM | IC50 [5]: 26.2 µM | IC50 [6]: 27.4 µM

c1ccc(-c2nc(CNc3nccc(N4CCCCC4)n3)cs2)cc1
IC50 at 72 h [1]: 12.3 µM | IC50 [2]: 8.39 µM | IC50 [3]: 48.3 µM | IC50 [4]: 21.9 µM | IC50 [5]: 21.4 µM | IC50 [6]: 14.6 µM

c1ccc(-c2nc(CNc3nccc(N4CCCC4)n3)cs2)cc1
IC50 at 72 h [1]: 17.4 µM | IC50 [2]: 26.2 µM | IC50 [3]: 61.8 µM | IC50 [4]: 29.6 µM | IC50 [5]: 20.2 µM | IC50 [6]: 18.3 µM

CC(C)CNc1ccnc(NCc2csc(-c3ccccc3)n2)n1
IC50 at 72 h [1]: 49.1 µM | IC50 [2]: 37.9 µM | IC50 [3]: 89.4 µM | IC50 [4]: 33 µM | IC50 [5]: 21.4 µM | IC50 [6]: 31.1 µM

c1ccc(-c2nc(CNc3nccc(NC4CC4)n3)cs2)cc1
IC50 at 72 h [1]: 59.5 µM | IC50 [2]: 72.3 µM | IC50 [3]: > 100 µM | IC50 [4]: 68.8 µM | IC50 [5]: 52.5 µM | IC50 [6]: > 100 µM

c1ccc(-c2nc(CNc3nccc(NC4CCCCC4)n3)cs2)cc1
IC50 at 72 h [1]: 10.8 µM | IC50 [2]: 11.6 µM | IC50 [3]: 28.2 µM | IC50 [4]: 19.4 µM | IC50 [5]: 12.5 µM | IC50 [6]: 18.4 µM

OC1CC2CC1CN2c1ccnc(NCc2csc(-c3ccccc3)n2)n1 (stereo not drawn)
Activity [7]: 54.28% | Activity [8]: 21.31% | IC50 at 72 h [1]: 5.61 µM | half-life [9]: 2.1 h | Activity [10]: Dose-Dependent Effect | half-life [11]: 4.2 h | Activity [12]: 48.58% | Activity [13]: 26.72% | Activity [14]: Active | Activity [15]: 42.3 | IC50 [2]: 3.29 µM | inhibition [16]: Active | Activity [17]: 72.7% | IC50 [3]: 23.1 µM | Activity [18]: Active | Activity [19]: Active | Activity [20]: 74.6% | Activity [21]: Active | IC50 [4]: 4.84 µM | Activity [22]: Dose-Dependent Effect | IC50 [5]: 8.21 µM | Activity [23]: Non-Toxic | Activity [24]: Active | IC50 [6]: 6.46 µM | Activity [25]: 119.7 | IC50 at 24 h [26]: 27.5 µM | Activity [27]: Active | inhibition [28]: Active | inhibition [29]: Active | Activity [30]: 21.42% | Activity [31]: 41.2% | Activity [32]: 73

COc1cccc2c1C(=O)c1c(O)c3c(c(O)c1C2=O)C[C@@](O)(C(=O)CO)C[C@@H]3O[C@H]1C[C@H](N)[C@H](O)[C@H](C)O1 [DOXORUBICIN]
IC50 at 72 h [1]: 0.45 µM | IC50 [2]: 0.25 µM | IC50 [3]: 0.23 µM | IC50 [4]: 0.37 µM | IC50 [5]: 0.19 µM | IC50 [6]: 0.32 µM

CC(C)CNc1cccc(NCc2csc(-c3ccccc3)n2)c1
IC50 at 72 h [1]: > 100 µM | IC50 [2]: > 100 µM
